Test results reported in US12240862B2, “Inhibitors of peptidylarginine deiminases” (Gilead Sciences, Inc., priority 2020, dated 2025).
pIC50: −log10 of the molar value.

The compounds below were run against T1, human PAD4 (Homo sapiens, UniProt Q9UM07) (assay: In vitro PAD4 BAEE biochemical assay). Details: human PAD4, BAEE substrate; 5 nM PAD4, 2 mM calcium chloride, 3 mM BAEE; geometric mean of multiple experiments.
T1 construct: human PAD4 (NM_012387), A2P663, was PCR amplified; His-SUMO (N, cleaved yes); made in house; host or cells: E. coli BL21(DE3)
T1 sequence (Q9UM07 2-663): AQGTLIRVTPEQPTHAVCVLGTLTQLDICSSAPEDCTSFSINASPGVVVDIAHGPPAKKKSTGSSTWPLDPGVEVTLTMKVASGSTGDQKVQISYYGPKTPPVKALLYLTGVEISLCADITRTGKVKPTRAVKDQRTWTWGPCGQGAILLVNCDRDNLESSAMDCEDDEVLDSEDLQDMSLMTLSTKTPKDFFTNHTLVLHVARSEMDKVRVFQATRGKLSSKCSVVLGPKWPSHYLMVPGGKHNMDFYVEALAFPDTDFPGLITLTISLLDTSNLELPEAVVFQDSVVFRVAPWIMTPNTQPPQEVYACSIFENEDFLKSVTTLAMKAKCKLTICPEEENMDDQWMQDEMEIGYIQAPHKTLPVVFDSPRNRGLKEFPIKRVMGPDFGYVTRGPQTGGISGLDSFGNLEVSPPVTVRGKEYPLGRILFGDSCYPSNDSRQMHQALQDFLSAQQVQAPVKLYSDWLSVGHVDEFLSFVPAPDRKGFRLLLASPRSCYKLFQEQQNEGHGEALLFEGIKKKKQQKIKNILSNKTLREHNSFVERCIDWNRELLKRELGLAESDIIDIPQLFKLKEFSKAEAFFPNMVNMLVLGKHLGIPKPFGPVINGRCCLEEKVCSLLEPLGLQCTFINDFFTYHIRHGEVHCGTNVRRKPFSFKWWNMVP
Outline: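 Ammonia release from BAEE deimination monitored by o-phthalaldehyde amine coupling (1 h, 25 °C) after EDTA stop. Final conditions: 5 nM tag-free recombinant human PAD4 (E. coli), 2 mM CaCl2, 3 mM BAEE, pH 7.6 MOPS with DTT; 30 min compound preincubation, then 2 h reaction at 25 °C.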

Row | Compound | pIC50
1 | COc1cc(C(=O)N2[C@H]3CC[C@@H]2[C@H](N)C3)cc2nc(-c3cc4ccc([C@@H](C)NC(=O)C(C)(O)C5CC5)nc4n3CC3CC3)c(C)n12 (stereo partly shown) [Example 92, ~{N}-[(1~{R})-1-[2-[7-[(1~ {R},2~{R},4~{S})-2-amino-7-azabicyclo[2.2.1]heptane-7-carbonyl]-5-methoxy-3-methylimidazo [1,2-a]pyridin-2-yl]-1-(cyclopropylmethyl)pyrrolo [2,3-b]pyridin-6-yl]ethyl]-2-cyclopropyl-2-hydroxypropanamide] | 7.22
2 | COc1cc(C(=O)N2[C@H]3CC[C@@H]2[C@H](N)C3)cc2nc(-c3cc4ccc([C@@H](C)NC(=O)C(C)(O)C(C)C)nc4n3CC3CC3)c(C)n12 (stereo partly shown) [Example 93, ~{N}-[(1~{R})-1-[2-[7-[(1~ {R},2~{R},4~{S})-2-amino-7-azabicyclo[2.2.1]heptane-7-carbonyl]-5-methoxy-3-methylimidazo [1,2-a]pyridin-2-yl]-1-(cyclopropylmethyl)pyrrolo [2,3-b]pyridin-6-yl]ethyl]-2-hydroxy-2,3-dimethylbutanamide] | 7.16
3 | COc1cc(C(=O)N2[C@H]3CC[C@@H]2[C@H](N)C3)cc2nc(-c3cc4ccc([C@@H](C)NC(=O)[C@H](C)O)nc4n3CC3CC3)c(C)n12 [Example 94, (2~{S})-~{N}-[(1~{R})-1-[2-[7-[(1~{R},2~{R},4~{S})-2-amino-7-azabicyclo [2.2.1]heptane-7-carbonyl]-5-methoxy-3-methylimidazo [1,2-a]pyridin-2-yl]-1-(cyclopropylmethyl)pyrrolo [2,3-b]pyridin-6-yl]ethyl]-2-hydroxypropanamide] | 7.42
4 | COc1cc(C(=O)N2[C@H]3CC[C@@H]2[C@H](N)C3)cc2nc(-c3cc4ccc([C@@H](C)NC(=O)C5(O)CCC5)nc4n3CC3CC3)c(C)n12 [Example 95, ~{N}-[(1~{R})-1-[2-[7-[(1~ {R},2~{R},4~{S})-2-amino-7-azabicyclo[2.2.1]heptane-7-carbonyl]-5-methoxy-3-methylimidazo[1,2-a]pyridin-2-yl]-1-(cyclopropylmethyl)pyrrolo [2,3-b]pyridin-6-yl]ethyl]-1-hydroxycyclobutane-1-carboxamide] | 7.36
5 | COc1cc(C(=O)N2[C@H]3CC[C@@H]2[C@H](N)C3)cc2nc(-c3cc4ccc([C@@H](C)NC(=O)CN=S(C)(C)=O)nc4n3CC3CC3)c(C)n12 [Example 96] | 7.41
6 | COc1cc(C(=O)N2[C@H]3CC[C@@H]2[C@H](N)C3)cc2nc(-c3cc4ccc([C@@H](C)NC(=O)C5(O)CC5)nc4n3CC3CC3)c(C)n12 [Example 97, ~{N}-[(1~{R})-1-[2-[7-[(1~{R},2~{R},4~{S})-2-amino-7-azabicyclo[2.2.1]heptane-7-carbonyl]-5-methoxy-3-methylimidazo [1,2-a]pyridin-2-yl]-1-(cyclopropylmethyl)pyrrolo [2,3-b]pyridin-6-yl]ethyl]-1-hydroxycyclopropane-1-carboxamide] | 7.51
7 | COc1cc(C(=O)N2[C@H]3CC[C@@H]2[C@H](N)C3)cc2nc(-c3cc4ccc([C@@H](C)NC(=O)C5CCOCC5)nc4n3CC3CC3)c(C3CC3)n12 [Example 98] | 7.48
8 | COc1cc(C(=O)N2C[C@H]3CC[C@@H]2[C@@H]3N)cc2nc(-c3cc4ccc([C@@H](C)NC(=O)[C@H]5CC5(F)F)nc4n3CC3CC3)c(C)n12 [Example 100, (R)-N-((R)-1-(2-(7-((1R,4R,7R)-7-amino-2-azabicyclo[2.2.1]heptane-2-carbonyl)-5-methoxy-3-methylimidazo[1,2-a]pyridin-2-yl)-1-(cyclopropylmethyl)-1H-pyrrolo[2,3-b]pyridin-6-yl)ethyl)-2,2-difluorocyclopropane-1-carboxamide] | 7.12
9 | COc1cc(C(=O)N2[C@H]3CC[C@@H]2[C@H](N)C3)cc2nc(-c3cc4ccc([C@@H](C)NC(=O)C5CCC5)nc4n3CC3CC3)c(C)n12 [Example 101] | 7.65
10 | COc1cc(C(=O)N2[C@H]3CC[C@@H]2[C@H](N)C3)cc2nc(-c3cc4ccc([C@@H](C)NC(=O)C5(C)CC5(F)F)nc4n3CC3CC3)c(C)n12 (stereo partly shown) [Example 102, ~{N}-[(1~{R})-1-[2-[7-[(1~{R},2~{R},4~{S})-2-amino-7-azabicyclo[2.2.1]heptane-7-carbonyl]-5-methoxy-3-methylimidazo [1,2-a]pyridin-2-yl]-1-(cyclopropylmethyl)pyrrolo [2,3-b]pyridin-6-yl]ethyl]-2,2-difluoro-1-methylcyclopropane-1-carboxamide] | 7.33
11 | COc1cc(C(=O)N2[C@H]3CC[C@@H]2[C@H](N)C3)cc2nc(-c3cc4ccc([C@@H](C)NC(=O)C5C(C)(C)C5(F)F)nc4n3CC3CC3)c(C)n12 (stereo partly shown) [Example 103, ~{N}-[(1~{R})-1-[2-[7-[(1~{R},2~{R},4~{S})-2-amino-7-azabicyclo[2.2.1]heptane-7-carbonyl]-5-methoxy-3-methylimidazo [1,2-a]pyridin-2-yl]-1-(cyclopropylmethyl)pyrrolo [2,3-b]pyridin-6-yl]ethyl]-2,2-difluoro-3,3-dimethylcyclopropane-1-carboxamide] | 7.18
12 | COc1cc(C(=O)N2[C@H]3CC[C@@H]2[C@H](N)C3)cc2nc(-c3cc4ccc([C@@H](C)NC(=O)c5ccon5)nc4n3CC3CC3)c(C)n12 [Example 104, ~{N}-[(1~{R})-1-[2-[7-[(1~{R},2~{R},4~{S})-2-amino-7-azabicyclo[2.2.1]heptane-7-carbonyl]-5-methoxy-3-methylimidazo [1,2-a]pyridin-2-yl]-1-(cyclopropylmethyl)pyrrolo [2,3-b]pyridin-6-yl]ethyl]-1,2-oxazole-3-carboxamide] | 7.05
13 | COc1cc(C(=O)N2[C@H]3CC[C@@H]2[C@H](N)C3)cc2nc(-c3cc4ccc([C@@H](C)NC(=O)c5cocn5)nc4n3CC3CC3)c(C)n12 [Example 105, ~{N}-[(1~{R})-1-[2-[7-[(1~{R},2~{R},4~{S})-2-amino-7-azabicyclo[2.2.1]heptane-7-carbonyl]-5-methoxy-3-methylimidazo [1,2-a]pyridin-2-yl]-1-(cyclopropylmethyl)pyrrolo [2,3-b]pyridin-6-yl]ethyl]-1,3-oxazole-4-carboxamide] | 7.25
14 | COc1cc(C(=O)N2[C@H]3CC[C@@H]2[C@H](N)C3)cc2nc(-c3cc4ccc([C@@H](C)NC(=O)c5cnn(C6CC6)c5)nc4n3CC3CC3)c(C)n12 [Example 106, ~{N}-[(1~{R})-1-[2-[7-[(1~{R},2~{R},4~{S})-2-amino-7-azabicyclo [2.2.1]heptane-7-carbonyl]-5-methoxy-3-methylimidazo [1,2-a]pyridin-2-yl]-1-(cyclopropylmethyl)pyrrolo [2,3-b]pyridin-6-yl]ethyl]-1-cyclopropylpyrazole-4-carboxamide] | 7.39
15 | COc1cc(C(=O)N2[C@H]3CC[C@@H]2[C@H](N)C3)cc2nc(-c3cc4ccc([C@@H](C)NC(=O)c5cnn(C(F)F)c5)nc4n3CC3CC3)c(C)n12 [Example 107] | 7.35
16 | COc1cc(C(=O)N2[C@H]3CC[C@@H]2[C@H](N)C3)cc2nc(-c3cc4ccc([C@@H](C)NC(=O)c5ccn(C)n5)nc4n3CC3CC3)c(C)n12 [Example 108, ~{N}-[(1~{R})-1-[2-[7-[(1~{R},2~{R},4~{S})-2-amino-7-azabicyclo[2.2.1]heptane-7-carbonyl]-5-methoxy-3-methylimidazo [1,2-a]pyridin-2-yl]-1-(cyclopropylmethyl)pyrrolo [2,3-b]pyridin-6-yl]ethyl]-1-methylpyrazole-3-carboxamide] | 7.28
